The target in one test is T1, human μ-opioid receptor (Homo sapiens, UniProt P35372).
T1 construct: expressed in transfected cells; host or cells: CHO-K1
As to the kind of experiment: Human μ-opioid receptor radioligand assay ([3H]-DAMGO). It is filed as binding. The procedure:
Human μ-Opioid Receptor Radioligand Assay
To investigate binding properties of test compounds to human μ-opioid receptor, transfected CHO-K1 cell membranes and [^3H]-DAMGO (Perkin Elmer, ES-542-C), as the radioligand, were used. The assay was carried out with 20 μg of membrane suspension, 1 nM of [^3H]-DAMGO in either absence or presence of either buffer or 10 μM Naloxone for total and non-specific binding, respectively. Binding buffer contained Tris-HCl 50 mM, MgCl2 5 mM at pH 7.4. Plates were incubated at 27° C. for 60 minutes. After the incubation period, the reaction mix was then transferred to MultiScreen HTS, FC plates (Millipore), filtered and plates were washed 3 times with ice-cold 10 mM Tris-HCL (pH 7.4). Filters were dried and counted at approximately 40% efficiency in a MicroBeta scintillation counter (Perkin-Elmer) using EcoScint liquid scintillation cocktail. Preferably, transfected CHO-K1 cell membranes (20 μg) were incubated with 1 nM of [^3H]-DAMGO in assay buffer containing Tris-HCl 50 mM, MgCl2 5 mM at pH 7.4. NBS (non-specific binding) was measured by adding 10 μM Naloxone. The binding of the test compound was measured at five different concentrations. Plates were incubated at 27° C. for 60 minutes. After the incubation period, the reaction mix was then transferred to MultiScreen HTS, FC plates (Millipore), filtered and plates were washed 3 times with ice-cold 10 mM Tris-HCL (pH 7.4). Filters were dried and counted at approximately 40% efficiency in a MicroBeta scintillation counter (Perkin-Elmer) using EcoScint liquid scintillation cocktail.

The target in test [1] is Human α2δ-1 subunit of Cav2.2 calcium channel (Homo sapiens, UniProt P54289). As to the kind of experiment: Human α2δ-1 subunit of Cav2.2 calcium channel assay ([3H]-Gabapentin binding). The conditions noted are these: human α2δ-1 enriched membranes, 15 nM [3H]-Gabapentin, binding expressed as Ki; read-out: α2δ1 binding activity. The procedure: Human α2δ-1 Subunit of Cav2.2 Calcium Channel Assay
Human α2δ-1 subunit of Cav2.2 calcium channel, sequence (P54289 25-1103): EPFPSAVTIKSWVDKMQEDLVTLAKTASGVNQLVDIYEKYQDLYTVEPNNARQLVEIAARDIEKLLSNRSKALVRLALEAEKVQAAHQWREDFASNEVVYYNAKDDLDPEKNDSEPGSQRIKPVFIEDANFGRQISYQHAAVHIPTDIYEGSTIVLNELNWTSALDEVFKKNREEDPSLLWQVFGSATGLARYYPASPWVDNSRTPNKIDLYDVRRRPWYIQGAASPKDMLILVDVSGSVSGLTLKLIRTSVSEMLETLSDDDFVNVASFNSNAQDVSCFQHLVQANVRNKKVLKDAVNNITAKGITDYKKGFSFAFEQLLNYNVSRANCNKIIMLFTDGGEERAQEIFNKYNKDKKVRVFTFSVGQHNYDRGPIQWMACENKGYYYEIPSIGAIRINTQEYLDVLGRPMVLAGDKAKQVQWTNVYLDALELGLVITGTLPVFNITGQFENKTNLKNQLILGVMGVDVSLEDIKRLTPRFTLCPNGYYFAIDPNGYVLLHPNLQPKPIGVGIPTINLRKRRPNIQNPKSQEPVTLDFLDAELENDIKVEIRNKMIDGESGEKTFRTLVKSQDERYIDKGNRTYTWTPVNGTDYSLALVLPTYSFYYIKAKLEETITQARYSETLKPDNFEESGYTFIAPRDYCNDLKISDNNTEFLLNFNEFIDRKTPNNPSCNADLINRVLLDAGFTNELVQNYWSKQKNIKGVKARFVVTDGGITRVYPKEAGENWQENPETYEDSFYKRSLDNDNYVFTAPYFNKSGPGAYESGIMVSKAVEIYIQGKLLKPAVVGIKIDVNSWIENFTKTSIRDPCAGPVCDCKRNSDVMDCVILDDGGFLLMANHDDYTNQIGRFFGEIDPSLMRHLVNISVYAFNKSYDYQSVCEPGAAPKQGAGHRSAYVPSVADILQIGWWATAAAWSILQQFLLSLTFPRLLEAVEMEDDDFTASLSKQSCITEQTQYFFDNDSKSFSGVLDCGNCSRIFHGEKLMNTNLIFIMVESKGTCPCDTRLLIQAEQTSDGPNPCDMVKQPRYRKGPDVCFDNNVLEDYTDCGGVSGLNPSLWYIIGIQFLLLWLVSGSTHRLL
Human α2δ-1 enriched membranes (2.5 μg) were incubated with 15 nM of radiolabeled [3H]-Gabapentin in assay buffer containing Hepes-KOH 10 mM, pH 7.4. NSB (non specific binding) was measured by adding 10 μM pregabalin. The binding of the test compound was measured at five different concentrations. After 60 min incubation at 27° C., binding reaction was terminated by filtering through Multiscreen GF/C (Millipore) presoaked in 0.5% polyethyleneimine in Vacuum Manifold Station, followed by 3 washes with ice-cold filtration buffer containing 50 mM Tris-HCl, pH 7.4. Filter plates were dried at 60° C. for 1 hour and 30 μl of scintillation cocktail were added to each well before radioactivity reading. Readings were performed in a Trilux 1450 Microbeta radioactive counter (Perkin Elmer).

Setting [2] is: transfected CHO-K1 cell membranes, 1 nM [3H]-DAMGO, binding expressed as Ki, read-out: Mu binding activity.

These results are taken from patent US20200190087A1 (priority 2016, published 2020).

Where two headings read alike, the source gives them in different places. Bounds are passed on as bounds.

T1 sequence (P35372 whole entry): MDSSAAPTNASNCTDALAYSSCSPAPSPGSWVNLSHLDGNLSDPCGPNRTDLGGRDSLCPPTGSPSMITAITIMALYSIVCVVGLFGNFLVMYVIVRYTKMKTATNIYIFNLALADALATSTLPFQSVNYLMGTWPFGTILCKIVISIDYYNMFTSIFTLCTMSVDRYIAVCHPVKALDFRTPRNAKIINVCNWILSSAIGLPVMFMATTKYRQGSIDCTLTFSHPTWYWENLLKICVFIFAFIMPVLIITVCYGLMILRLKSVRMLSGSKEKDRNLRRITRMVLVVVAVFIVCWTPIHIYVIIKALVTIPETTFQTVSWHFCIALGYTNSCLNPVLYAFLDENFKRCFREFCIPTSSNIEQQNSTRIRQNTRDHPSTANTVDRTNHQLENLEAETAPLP

Consider `CCOc1ccc(-n2nc3c(C4CN(C(=O)OC(C)(C)C)C4)nnc(C)c3c2C)c(F)c1` [Ex 12, tert-Butyl 3-(2-(4-ethoxy-2-fluorophenyl)-3,4-dimethyl-2H-pyrazolo[3,4-d]pyridazin-7-yl)azetidine-1-carboxylate], for which the Ki was greater than 500 nM at human μ-opioid receptor (setting [2]) and no less than 5000 nM in test [1].

In the case of `CCOc1ccc(-n2nc3c(C4CCN(CCc5cccnc5)CC4)nnc(C)c3c2C)c(F)c1` [Ex 47, 2-(4-Ethoxy-2-fluorophenyl)-3,4-dimethyl-7-(1-(2-(pyridin-3-yl)ethyl)piperidin-4-yl)-2H-pyrazolo[3,4-d]pyridazine], the Ki is greater than 500 nM on human μ-opioid receptor (setting [2]) and 500 to 3000 nM in test [1].

As to `CCOc1ccc(-n2nc3c(CCCNC)nnc(C)c3c2C)c(F)c1` [Ex 21, 3-(2-(4-Ethoxy-2-fluorophenyl)-3,4-dimethyl-2H-pyrazolo[3,4-d]pyridazin-7-yl)-N-methylpropan-1-amine], the Ki at human μ-opioid receptor (setting [2]) was greater than 500 nM; in test [1], no less than 5000 nM.

Take `CCOc1ccc(-n2nc3c(-c4cccc(CCN(C)C)c4)nnc(C)c3c2C)c(F)c1` [Ex 9, 2-(3-(2-(4-Ethoxy-2-fluorophenyl)-3,4-dimethyl-2H-pyrazolo[3,4-d]pyridazin-7-yl)phenyl)-N,N-dimethylethan-1-amine]: the Ki on human μ-opioid receptor (setting [2]) was greater than 500 nM; in test [1] it was 500 to 3000 nM.

Turning to `CCOc1ccc(-n2nc3c(C#N)nnc(C)c3c2C)c(F)c1` [Ex 59, 2-(4-Ethoxy-2-fluorophenyl)-3,4-dimethyl-2H-pyrazolo[3,4-d]pyridazine-7-carbonitrile], the Ki on human μ-opioid receptor (setting [2]) is greater than 500 nM; in test [1], no less than 5000 nM.

With `CCOc1ccc(-n2nc3c(CCCN)nnc(C)c3c2C)c(F)c1` [Ex 20, 3-(2-(4-Ethoxy-2-fluorophenyl)-3,4-dimethyl-2H-pyrazolo[3,4-d]pyridazin-7-yl)propan-1-amine], the Ki at human μ-opioid receptor (setting [2]) was greater than 500 nM; in test [1], 500 to 3000 nM.

Consider `CCOc1ccc(-n2nc3c(C4CCN(Cc5ccc(F)cn5)CC4)nnc(C)c3c2C)c(F)c1` [Ex 55, 2-(4-Ethoxy-2-fluorophenyl)-7-(1-((5-fluoropyridin-2-yl)methyl)piperidin-4-yl)-3,4-dimethyl-2H-pyrazolo[3,4-d]pyridazine], for which the Ki on human μ-opioid receptor (setting [2]) is greater than 500 nM; in test [1], 500 to 3000 nM.

Consider `CCOc1ccc(-n2nc3c(C4CCCNC4)nnc(C)c3c2C)c(F)c1` (centres unmarked) [Ex 19, 2-(4-Ethoxy-2-fluorophenyl)-3,4-dimethyl-7-(piperidin-3-yl)-2H-pyrazolo[3,4-d]pyridazine], for which the results for the Ki (on human μ-opioid receptor (setting [2]); in test [1]) were greater than 500 nM and no less than 5000 nM, respectively.

With `CCOc1ccc(-n2nc3c(C(C#N)(Cc4ccccc4)C(=O)OC(C)(C)C)nnc(C)c3c2C)c(F)c1` (centres unmarked) [Ex 64, tert-Butyl 2-cyano-2-(2-(4-ethoxy-2-fluorophenyl)-3,4-dimethyl-2H-pyrazolo[3,4-d]pyridazin-7-yl)-3-phenylpropanoate], the Ki on human μ-opioid receptor (setting [2]) is greater than 500 nM; in test [1], no less than 5000 nM.

Take `CCOc1ccc(-n2nc3c(CCCNC(=O)OC(C)(C)C)nnc(C)c3c2C)c(F)c1` [Ex 16, tert-Butyl-(3-(2-(4-ethoxy-2-fluorophenyl)-3,4-dimethyl-2H-pyrazolo[3,4-d]pyridazin-7-yl)propyl)carbamate]: the results for the Ki (at human μ-opioid receptor (setting [2]); in test [1]) were greater than 500 nM and no less than 5000 nM, respectively.

As to `CCOc1ccc(-n2nc3c(C4CCN(Cc5ccc(O)cn5)CC4)nnc(C)c3c2C)c(F)c1` [Ex 54, 6-((4-(2-(4-Ethoxy-2-fluorophenyl)-3,4-dimethyl-2H-pyrazolo[3,4-d]pyridazin-7-yl)piperidin-1-yl)methyl)pyridin-3-ol], the values for the Ki (at human μ-opioid receptor (setting [2]); in test [1]) were greater than 500 nM and 500 to 3000 nM, respectively.

`CCOc1ccc(-n2nc3c(CCCN(C)CCc4ccccc4)nnc(C)c3c2C)c(F)c1` [Ex 39, 3-(2-(4-Ethoxy-2-fluorophenyl)-3,4-dimethyl-2H-pyrazolo[3,4-d]pyridazin-7-yl)-N-methyl-N-phenethylpropan-1-amine]: the Ki on human μ-opioid receptor (setting [2]) was greater than 500 nM; in test [1] it was 500 to 3000 nM.

Turning to `CCOc1ccc(-n2nc3c(C4CN(CCc5ccccc5)C4)nnc(C)c3c2C)c(F)c1` [Ex 37, 2-(4-Ethoxy-2-fluorophenyl)-3,4-dimethyl-7-(1-phenethylazetidin-3-yl)-2H-pyrazolo[3,4-d]pyridazine], the results for the Ki (at human μ-opioid receptor (setting [2]); in test [1]) were greater than 500 nM and 500 to 3000 nM, respectively.

For `CCOc1ccc(-n2nc3c(CCCNCc4ccccc4)nnc(C)c3c2C)c(F)c1` [Ex 38, N-Benzyl-3-(2-(4-ethoxy-2-fluorophenyl)-3,4-dimethyl-2H-pyrazolo[3,4-d]pyridazin-7-yl)propan-1-amine], the Ki on human μ-opioid receptor (setting [2]) is greater than 500 nM; in test [1], 500 to 3000 nM.

As to `CCOc1ccc(-n2nc3c(C4CCN(Cc5cn(Cc6ccccn6)nn5)CC4)nnc(C)c3c2C)c(F)c1` [Ex 35, 2-(4-Ethoxy-2-fluorophenyl)-3,4-dimethyl-7-(1-((1-(pyridin-2-ylmethyl)-1H-1,2,3-triazol-4-yl)methyl)piperidin-4-yl)-2H-pyrazolo[3,4-d]pyridazine], the Ki on human μ-opioid receptor (setting [2]) is greater than 500 nM; in test [1] it was 500 to 3000 nM.

Regarding `CCOc1ccc(-n2nc3c(CN4CCC(c5cccc(O)c5)CC4)nnc(C)c3c2C)c(F)c1` [Ex 60, 3-(1-((2-(4-Ethoxy-2-fluorophenyl)-3,4-dimethyl-2H-pyrazolo[3,4-d]pyridazin-7-yl)methyl)piperidin-4-yl)phenol], the Ki at human μ-opioid receptor (setting [2]) is greater than 500 nM; in test [1], 500 to 3000 nM.

In the case of `CCOc1ccc(-n2nc3c(C4CCCN(Cc5ccccc5)C4)nnc(C)c3c2C)c(F)c1` (centres unmarked) [Ex 36, 7-(1-Benzylpiperidin-3-yl)-2-(4-ethoxy-2-fluorophenyl)-3,4-dimethyl-2H-pyrazolo[3,4-d]pyridazine], the results for the Ki (at human μ-opioid receptor (setting [2]); in test [1]) were greater than 500 nM and 500 to 3000 nM, respectively.

Regarding `CCOc1ccc(-n2nc3c(C4CCN(CCc5cccc(OC)c5)CC4)nnc(C)c3c2C)c(F)c1` [Ex 45, 2-(4-Ethoxy-2-fluorophenyl)-7-(1-(3-methoxyphenethyl)piperidin-4-yl)-3,4-dimethyl-2H-pyrazolo[3,4-d]pyridazine], the results for the Ki (at human μ-opioid receptor (setting [2]); in test [1]) were greater than 500 nM and 500 to 3000 nM, respectively.

Turning to `CCOc1ccc(-n2nc3c(C4CCN(Cc5ccccn5)CC4)nnc(C)c3c2C)c(F)c1` [Ex 28, 2-(4-Ethoxy-2-fluorophenyl)-3,4-dimethyl-7-(1-(pyridin-2-ylmethyl)piperidin-4-yl)-2H-pyrazolo[3,4-d]pyridazine], the values for the Ki (on human μ-opioid receptor; in test [1]) were less than 500 nM and 500 to 3000 nM, respectively.

With `CCOc1ccc(-n2nc3c(C4CCN(Cc5ncccc5F)CC4)nnc(C)c3c2C)c(F)c1` [Ex 48, 2-(4-Ethoxy-2-fluorophenyl)-7-(1-((3-fluoropyridin-2-yl)methyl)piperidin-4-yl)-3,4-dimethyl-2H-pyrazolo[3,4-d]pyridazine], the Ki is greater than 500 nM at human μ-opioid receptor (setting [2]) and 500 to 3000 nM in test [1].

Consider `CCOc1ccc(-n2nc3c(CCNCc4ccccc4)nnc(C)c3c2C)c(F)c1` [Ex 40, N-Benzyl-2-(2-(4-ethoxy-2-fluorophenyl)-3,4-dimethyl-2H-pyrazolo[3,4-d]pyridazin-7-yl)ethan-1-amine], for which the Ki on human μ-opioid receptor (setting [2]) was greater than 500 nM; in test [1] it was no less than 5000 nM.

With `CCOc1ccc(-n2nc3c(C4CCN(CCc5ccc(F)cc5)CC4)nnc(C)c3c2C)c(F)c1` [Ex 46, 2-(4-Ethoxy-2-fluorophenyl)-7-(1-(4-fluorophenethyl)piperidin-4-yl)-3,4-dimethyl-2H-pyrazolo[3,4-d]pyridazine], the Ki is greater than 500 nM on human μ-opioid receptor (setting [2]) and 500 to 3000 nM in test [1].

In the case of `CCOc1ccc(-n2nc3c(C(C#N)C(=O)OC(C)(C)C)nnc(C)c3c2C)c(F)c1` (centres unmarked) [Ex 61, tert-Butyl 2-cyano-2-(2-(4-ethoxy-2-fluorophenyl)-3,4-dimethyl-2H-pyrazolo[3,4-d]pyridazin-7-yl)acetate], the Ki is greater than 500 nM at human μ-opioid receptor (setting [2]) and 500 to 3000 nM in test [1].

Consider `CCOc1ccc(-n2nc3c(C4CCN(Cc5ccncc5)CC4)nnc(C)c3c2C)c(F)c1` [Ex 30, 2-(4-Ethoxy-2-fluorophenyl)-3,4-dimethyl-7-(1-(pyridin-4-ylmethyl)piperidin-4-yl)-2H-pyrazolo[3,4-d]pyridazine], for which the Ki on human μ-opioid receptor (setting [2]) was greater than 500 nM; in test [1] it was 500 to 3000 nM.

For `CCOc1ccc(-n2nc3c(C4CCN(CC5CCOCC5)CC4)nnc(C)c3c2C)c(F)c1` [Ex 33, 2-(4-Ethoxy-2-fluorophenyl)-3,4-dimethyl-7-(1-((tetrahydro-2H-pyran-4-yl)methyl)piperidin-4-yl)-2H-pyrazolo[3,4-d]pyridazine], the figures for the Ki (at human μ-opioid receptor (setting [2]); in test [1]) were greater than 500 nM and 500 to 3000 nM, respectively.
